Measurements taken from patent US12195482B1 (Arcus Biosciences, Inc., priority 2022, dated 2025).

How the values were obtained:
[1] = target: T1, recombinant human TYRO3 (Homo sapiens, UniProt Q06418); experiment: Biochemical potency, HTRF KinEASE-TK kinase assay; conditions: 1 nM TYRO3, 700 μM ATP
T1 construct: purchased Invitrogen
T1 sequence (Q06418 41-890): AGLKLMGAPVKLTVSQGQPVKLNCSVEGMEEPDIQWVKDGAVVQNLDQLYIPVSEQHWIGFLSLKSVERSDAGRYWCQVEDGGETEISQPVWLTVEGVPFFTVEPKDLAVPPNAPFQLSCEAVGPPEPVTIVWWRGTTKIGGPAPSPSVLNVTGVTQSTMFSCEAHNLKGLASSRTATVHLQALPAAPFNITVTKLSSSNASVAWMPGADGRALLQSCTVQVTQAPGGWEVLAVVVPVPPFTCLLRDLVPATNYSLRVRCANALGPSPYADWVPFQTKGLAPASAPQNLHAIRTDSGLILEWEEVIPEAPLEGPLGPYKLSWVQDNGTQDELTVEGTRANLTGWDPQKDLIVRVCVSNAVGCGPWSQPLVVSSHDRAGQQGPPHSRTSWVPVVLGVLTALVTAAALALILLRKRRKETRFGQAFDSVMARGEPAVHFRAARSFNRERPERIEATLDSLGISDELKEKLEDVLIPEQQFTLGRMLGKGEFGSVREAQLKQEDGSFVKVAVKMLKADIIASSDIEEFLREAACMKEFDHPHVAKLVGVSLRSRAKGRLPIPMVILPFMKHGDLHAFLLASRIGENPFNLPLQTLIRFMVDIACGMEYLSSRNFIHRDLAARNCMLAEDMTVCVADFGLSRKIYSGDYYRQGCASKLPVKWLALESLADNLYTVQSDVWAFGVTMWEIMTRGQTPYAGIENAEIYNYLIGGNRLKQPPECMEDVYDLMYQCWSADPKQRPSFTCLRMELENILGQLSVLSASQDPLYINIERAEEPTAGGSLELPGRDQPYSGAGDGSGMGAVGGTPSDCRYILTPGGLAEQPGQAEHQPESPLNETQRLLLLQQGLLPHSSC
How it was run: (§1)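 HTRF 665/620 readout after a 2 h RT kinase reaction (final 700 μM ATP, 800 nM biotinylated TK substrate, 1% DMSO, HEPES pH 7.4 buffer) gave percent activity. Final enzyme was 5 nM for AXL, 1 nM for TYRO3 or MER, each preincubated 1 h with compound.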

[2] = target: T2, recombinant human MER (Homo sapiens, UniProt Q12866); experiment: Biochemical potency, HTRF KinEASE-TK kinase assay; conditions: 1 nM MER, 700 μM ATP
T2 construct: purchased Invitrogen
T2 sequence (Q12866 21-999): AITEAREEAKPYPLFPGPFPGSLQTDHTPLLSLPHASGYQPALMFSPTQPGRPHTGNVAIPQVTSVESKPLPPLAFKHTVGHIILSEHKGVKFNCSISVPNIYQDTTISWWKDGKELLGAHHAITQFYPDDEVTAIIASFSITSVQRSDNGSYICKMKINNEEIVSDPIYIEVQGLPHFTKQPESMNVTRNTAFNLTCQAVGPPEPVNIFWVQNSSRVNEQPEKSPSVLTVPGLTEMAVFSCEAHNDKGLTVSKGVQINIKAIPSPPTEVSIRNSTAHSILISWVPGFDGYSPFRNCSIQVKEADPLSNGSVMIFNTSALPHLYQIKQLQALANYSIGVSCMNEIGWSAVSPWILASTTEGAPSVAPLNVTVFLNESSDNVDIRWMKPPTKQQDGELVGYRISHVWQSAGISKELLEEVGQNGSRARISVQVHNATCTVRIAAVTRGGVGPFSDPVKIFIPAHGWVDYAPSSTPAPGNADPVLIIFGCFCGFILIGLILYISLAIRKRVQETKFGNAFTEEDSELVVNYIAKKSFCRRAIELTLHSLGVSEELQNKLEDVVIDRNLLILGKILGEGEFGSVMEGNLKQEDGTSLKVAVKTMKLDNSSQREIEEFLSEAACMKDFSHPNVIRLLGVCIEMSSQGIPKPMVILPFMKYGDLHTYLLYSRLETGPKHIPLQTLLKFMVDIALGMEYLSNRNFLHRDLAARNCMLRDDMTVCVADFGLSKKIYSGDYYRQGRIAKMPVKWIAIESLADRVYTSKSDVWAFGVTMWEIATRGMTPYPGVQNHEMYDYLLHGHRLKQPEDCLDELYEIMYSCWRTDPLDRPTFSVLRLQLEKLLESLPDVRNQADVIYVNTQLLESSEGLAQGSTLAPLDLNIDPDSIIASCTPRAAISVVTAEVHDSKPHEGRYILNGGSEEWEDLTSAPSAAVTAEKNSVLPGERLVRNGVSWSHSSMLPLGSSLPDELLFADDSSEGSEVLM
How it was run: as §1

| IC50 [1] | IC50 [2] | SMILES |
| --- | --- | --- |
| < 100 nM | 100 to 1000 nM | O=C1CCCCN1c1cccnc1-c1ccc(-c2n[nH]c3ncc(-c4ccc5c(c4)CC[C@@H](N4C6COCC4C6)CC5)cc23)cc1 [Example 127, 1-[2-(4-{5-[(7S)-7-{3-Oxa-6-azabicyclo[3.1.1]heptan-6-yl}-6,7,8,9-tetrahydro-5H-benzo[7]annulen-2-yl]-1H-pyrazolo[3,4-b]pyridin-3-yl}phenyl)pyridin-3-yl]piperidin-2-one] |
| 100 to 1000 nM | 100 to 1000 nM | CN(C)C(=O)c1ccccc1-c1ccc(-c2n[nH]c3ncc(-c4ccc5c(c4)CC[C@@H](N4C6COCC4C6)CC5)cc23)cc1 [Example 12, N,N-Dimethyl-4′-{5-[(7S)-7-{3-oxa-6-azabicyclo[3.1.1]heptan-6-yl}-6,7,8,9-tetrahydro-5H-benzo[7]annulen-2-yl]-2H-pyrazolo[3,4-b]pyridin-3-yl}-[1,1′-biphenyl]-2-carboxamide] |
| 100 to 1000 nM | 100 to 1000 nM | C[C@@H]1CCCN1[C@@]1(C)CCc2ccc(-c3cnc4[nH]cc(-c5ccc(-c6ccccn6)cc5)c4c3)cc2CC1 [Example 156, 2-(4-{5-[(7S)-7-Methyl-7-[(2R)-2-methylpyrrolidin-1-yl]-6,7,8,9-tetrahydro-5H-benzo[7]annulen-2-yl]-1H-pyrrolo[2,3-b]pyridin-3-yl}phenyl)pyridine] |
| < 100 nM | 100 to 1000 nM | CS(=O)(=O)c1cccnc1-c1ccc(-c2c[nH]c3ncc(-c4ccc5c(c4)CC[C@@H](N4C6COCC4C6)CC5)cc23)cc1 [Example 102, 6-[(7S)-2-{3-[4-(3-Methanesulfonylpyridin-2-yl)phenyl]-1H-pyrrolo[2,3-b]pyridin-5-yl}-6,7,8,9-tetrahydro-5H-benzo[7]annulen-7-yl]-3-oxa-6-azabicyclo[3.1.1]heptane] |
| < 100 nM | < 100 nM | Cc1cccnc1-c1ccc(-c2c[nH]c3ncc(-c4ccc5c(c4)CC[C@@H](N[C@H]4CCCOC4)CC5)cc23)cc1 [Example 186, (3S)—N-[(7S)-2-{3-[4-(3-Methylpyridin-2-yl)phenyl]-1H-pyrrolo[2,3-b]pyridin-5-yl}-6,7,8,9-tetrahydro-5H-benzo[7]annulen-7-yl]oxan-3-amine] |
| 100 to 1000 nM | 100 to 1000 nM | c1cnc(-c2ccc(-c3n[nH]c4ncc(-c5ccc6c(c5)CC[C@@H](N5C7COCC5C7)CC6)cc34)cc2)c(C2CC2)c1 [Example 179, 6-[(7S)-2-{3-[4-(3-Cyclopropylpyridin-2-yl)phenyl]-1H-pyrazolo[3,4-b]pyridin-5-yl}-6,7,8,9-tetrahydro-5H-benzo[7]annulen-7-yl]-3-oxa-6-azabicyclo[3.1.1]heptane] |
| 100 to 1000 nM | 100 to 1000 nM | c1ccc(-c2ccc(-c3c[nH]c4ncc(-c5ccc6c(c5)CC[C@@H](N[C@H]5CCCOC5)CC6)cc34)cc2)nc1 [Example 32, (3S)—N-[(7S)-3-[3-(4-Pyridin-2-ylphenyl)-1H-pyrrolo[2,3-b]pyridin-5-yl]-6,7,8,9-tetrahydro-5H-benzo[7]annulen-7-yl]oxan-3-amine] |
| < 100 nM | 100 to 1000 nM | CCc1cccnc1-c1ccc(-c2c[nH]c3ncc(-c4ccc5c(c4)CC[C@@H](N4C6COCC4C6)CC5)cc23)cc1 [Example 183, 6-[(7S)-2-{3-[4-(3-Ethylpyridin-2-yl)phenyl]-1H-pyrrolo[2,3-b]pyridin-5-yl}-6,7,8,9-tetrahydro-5H-benzo[7]annulen-7-yl]-3-oxa-6-azabicyclo[3.1.1]heptane] |
| 100 to 1000 nM | 100 to 1000 nM | c1ccc(-c2ccc(-c3n[nH]c4ncc(-c5ccc6c(c5)CC[C@@H](N5C7COCC5C7)CC6)cc34)cc2)nc1 [Example 154, 6-[(7S)-2-{3-[4-(Pyridin-2-yl)phenyl]-2H-pyrazolo[3,4-b]pyridin-5-yl}-6,7,8,9-tetrahydro-5H-benzo[7]annulen-7-yl]-3-oxa-6-azabicyclo[3.1.1]heptane] |
| > 1000 nM | > 1000 nM | Cc1ccccc1-c1ccc(-c2n[nH]c3ncc(-c4ccc5c(c4)CC[C@@H](N4C6COCC4C6)CC5)cc23)nc1 [Example 98, 6-[(7S)-2-{3-[5-(2-Methylphenyl)pyridin-2-yl]-1H-pyrazolo[3,4-b]pyridin-5-yl}-6,7,8,9-tetrahydro-5H-benzo[7]annulen-7-yl]-3-oxa-6-azabicyclo[3.1.1]heptane] |
| < 100 nM | < 100 nM | Cc1cccnc1-c1ccc(-c2c[nH]c3ncc(-c4ccc5c(c4)CC[C@@H](N4CCCC4)CC5)cc23)cc1 [Example 173, 3-Methyl-2-(4-{5-[(7S)-7-(pyrrolidin-1-yl)-6,7,8,9-tetrahydro-5H-benzo[7]annulen-2-yl]-1H-pyrrolo[2,3-b]pyridin-3-yl}phenyl)pyridine] |
| < 100 nM | 100 to 1000 nM | CN(C)C(=O)c1cccnc1-c1ccc(-c2c[nH]c3ncc(-c4ccc5c(c4)CC[C@@H](N4C6COCC4C6)CC5)cc23)cc1 [Example 165, N,N-Dimethyl-2-(4-{5-[(7S)-7-{3-oxa-6-azabicyclo[3.1.1]heptan-6-yl}-6,7,8,9-tetrahydro-5H-benzo[7]annulen-2-yl]-1H-pyrrolo[2,3-b]pyridin-3-yl}phenyl)pyridine-3-carboxamide] |
| < 100 nM | < 100 nM | C[C@@H]1COC(=O)N1c1cccnc1-c1ccc(-c2n[nH]c3ncc(-c4ccc5c(c4)CC[C@@H](N4C6COCC4C6)CC5)cc23)cc1 [Example 124, (4R)-4-Methyl-3-[2-(4-{5-[(7S)-7-{3-oxa-6-azabicyclo[3.1.1]heptan-6-yl}-6,7,8,9-tetrahydro-5H-benzo[7]annulen-2-yl]-1H-pyrazolo[3,4-b]pyridin-3-yl}phenyl)pyridin-3-yl]-1,3-oxazolidin-2-one] |
| > 1000 nM | > 1000 nM | CN(C)C(=O)c1cccc(-c2ccc(-c3n[nH]c4ncc(-c5ccc6c(c5)CC[C@@H](N5C7COCC5C7)CC6)cc34)cc2)n1 [Example 94, N,N-Dimethyl-6-(4-{5-[(7S)-7-{3-oxa-6-azabicyclo[3.1.1]heptan-6-yl}-6,7,8,9-tetrahydro-5H-benzo[7]annulen-2-yl]-2H-pyrazolo[3,4-b]pyridin-3-yl}phenyl)pyridine-2-carboxamide] |
| < 100 nM | < 100 nM | CO[C@H]1C[C@@H](N[C@H]2CCc3ccc(-c4cnc5[nH]nc(-c6ccc(-c7ncccc7C)cc6)c5c4)cc3CC2)C1 [Example 131, (7S)-2-{3-[4-(3-Methylpyridin-2-yl)phenyl]-1H-pyrazolo[3,4-b]pyridin-5-yl}-N-[cis-3-methoxycyclobutyl]-6,7,8,9-tetrahydro-5H-benzo[7]annulen-7-amine] |
| < 100 nM | 100 to 1000 nM | Cc1nn(C)nc1-c1ccc(-c2n[nH]c3ncc(-c4ccc5c(c4)CC[C@@H](N4C6COCC4C6)CC5)cc23)cc1 [Example 14, 6-[(7S)-2-{3-[4-(2,5-Dimethyl-2H-1,2,3-triazol-4-yl)phenyl]-1H-pyrazolo[3,4-b]pyridin-5-yl}-6,7,8,9-tetrahydro-5H-benzo[7]annulen-7-yl]-3-oxa-6-azabicyclo[3.1.1]heptane] |
